Series [1] can be described thus: Chemical stability of nimodipine in the Table 2 composition via HPLC. Type of series: physicochemical. The procedure: The chemical stability of nimodipine was measured at 40 and 60 degrees C. via HPLC in a composition described in Table 2.
FIGS. 1 and 2 show the chemical stability of nimodipine in the composition described in Table 2 at 40 and 60 degrees C., respectively. These Figures show data acquired with compositions having a pH of 5, 6, and 7, over a period of four weeks. […] Subsequent data has also been acquired over a period of 8 weeks.

Series [2] in a line: Nimodipine equilibrium solubility in alcohol/solvent/water mixtures. Type of series: physicochemical. The note with it: 10% ethanol. The procedure: The effect of several alcohol and solvent concentrations on nimodipine solubility in water was studied. Nimodipine equilibrium solubility was tested at room temperature with the following solutions: • 1. Various % (v/v) of ethanol in 10 mM pH 6.8 citrate buffer • 2. Various % (w/w) of Cremophor® EL in 10 mM pH 6.8 citrate buffer • 3. Various % (v/v) of ethanol with 30% (w/w) Cremophor® EL in 10 mM pH 6.8 citrate buffer • 4. Various % (w/w) of propylene glycol (PG) in the solution of 30% Cremophor™ EL and 10% ethanol in citrate buffer at pH 6.8 • 5. Various % (w/w) of propylene glycol (PG) in the solution of 20% Cremophor® EL and 10% ethanol in citrate buffer at pH 6.8 • 6. Various % (w/w) of PEG 400 in the solution of 20% Cremophor® EL and 10% ethanol in citrate buffer at pH 6.8 • 7. Various % (w/w) of PEG400 in the solution of 30% Cremophor® EL and 10% ethanol in citrate buffer at pH 6.8 • 8. Various % (w/w) of mixture of PG/PEG400 at 1:1 (w/w) in the solution of 30% Cremophor® EL and 10% ethanol in citrate buffer at pH6.8 The above solutions were prepared by weight except solution 1 which the percent ethanol was mixed with citrate buffer by volume. […] Concentration of each sample was determined by HPLC based on a standard curve and the dilution factor of each samples solution. […]

Structures are written as SMILES. In brackets after ≈: the same amount, converted by molar mass.

As for `COCCOC(=O)C1=C(C)NC(C)=C(C(=O)OC(C)C)C1c1cccc([N+](=O)[O-])c1` (centres unmarked) [nimodipine, 1,4-dihydro-2,6-dimethyl-4-(3-nitrophenyl)-3,5-pyridinedicarboxylic acid 2-methoxyethyl 1-methylethyl ester], the nimodipine stability entry in series [1] (Table 2 composition (3.0 mg/mL), 40 degrees C, pH 5, 6 and 7, four weeks, HPLC) is on record as “greater than 99%”; in series [1] (Table 2 composition (3.0 mg/mL), 60 degrees C, pH 5, 6 and 7, four weeks, HPLC) it was “greater than 99%”; in series [1] (Table 2 composition, 60 degrees C, pH=7, 8 weeks), “greater than 99%”. Moreover, in series [2] (30% PEG 400, FIG. 7), the “nimodipine solubility compared with the composition comprising 30% ethanol and 30% Cremophor EL” value was “comparable”. For the same compound, in series [2] (aqueous with cosolvent or surfactant or cyclodextrin, thermodynamic from solid, 30% Cremophor EL, 30% PEG 400 in citrate buffer pH 6.8, room temperature, 24 hours), the solubility (commonly how much of the substance goes into solution per volume) at 24 h is about 14 mg/mL (≈ 33.5 mM).

The values above are taken from patent US20070117851A1, “Liquid pharmaceutical compositions of nimodipine” (TRANSFORM PHARMACEUTICALS, INC., priority 2005, published 2007).
